Laboratory results as given in the supplement of paper PMC10883282.
± gives the standard deviation of the averaged measurements.

Key:
Assay in all cases: relative viability vs DMSO control (72 h) (fraction); higher = more viable cells
SK-LMS-1 = tested on: SK-LMS-1
Procedure, shortened: (§1)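 Sarcoma cell lines were plated in 384 wells to reach 80–90% confluence, treated after 24 h with 2.5 µl of serially diluted compound and held 72 h at 37 °C, 5% CO2. Relative viability was taken as percent growth from ATPLite readings, averaged over up to triplicate wells. The values were rescaled so that 1 marks full and 0 marks none.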

VA-ES-BJ = tested on: VA-ES-BJ
Procedure, shortened: as §1

KHOS-240S = tested on: KHOS-240S
Procedure, shortened: as §1

A204 = tested on: A204
Procedure, shortened: as §1

MES-SA = tested on: MES-SA
Procedure, shortened: as §1

SW1353 = tested on: SW1353
Procedure, shortened: as §1

SK-ES-1 = tested on: SK-ES-1
Procedure, shortened: as §1

RD = tested on: RD
Procedure, shortened: as §1

SW872 = tested on: SW872
Procedure, shortened: as §1

G401 = tested on: G401
Procedure, shortened: as §1

HS729 = tested on: HS729
Procedure, shortened: as §1

SW982 = tested on: SW982
Procedure, shortened: as §1

CNC(=O)c1ccccc1Sc1ccc2c(/C=C/c3ccccn3)n[nH]c2c1 [Axitinib]
Settings	relative viability
A204, 0.00017 µM	1.04 ± 0.081
A204, 0.00051 µM	1.07 ± 0.048
A204, 0.00152 µM	1.03 ± 0.036
A204, 0.00457 µM	0.942 ± 0.032
A204, 0.01372 µM	0.77 ± 0.063
A204, 0.04115 µM	0.484 ± 0.032
A204, 0.1235 µM	0.405 ± 0.043
A204, 0.3704 µM	0.359 ± 0.043
A204, 1.111 µM	0.289 ± 0.045
A204, 3.333 µM	0.159 ± 0.096
A204, 10 µM	0.0338 ± 0.0049
G401, 0.00017 µM	1.04 ± 0.037
G401, 0.00051 µM	1.04 ± 0.014
G401, 0.00152 µM	1.02 ± 0.011
G401, 0.00457 µM	1.01 ± 0.011
G401, 0.01372 µM	0.979 ± 0.043
G401, 0.04115 µM	0.963 ± 0.041
G401, 0.1235 µM	0.942 ± 0.049
G401, 0.3704 µM	0.854 ± 0.056
G401, 1.111 µM	0.806 ± 0.05
G401, 3.333 µM	0.456 ± 0.046
G401, 10 µM	0.0633 ± 0.0041
HS729, 0.00017 µM	1.09 ± 0.026
HS729, 0.00051 µM	1.03 ± 0.076
HS729, 0.00152 µM	1.04 ± 0.081
HS729, 0.00457 µM	0.987 ± 0.047
HS729, 0.01372 µM	0.909 ± 0.12
HS729, 0.04115 µM	0.916 ± 0.081
HS729, 0.1235 µM	0.929 ± 0.063
HS729, 0.3704 µM	0.861 ± 0.083
HS729, 1.111 µM	0.698 ± 0.04
HS729, 3.333 µM	0.271 ± 0.042
HS729, 10 µM	0.111 ± 0.0086
KHOS-240S, 0.00017 µM	1.05 ± 0.041
KHOS-240S, 0.00051 µM	1.02 ± 0.03
KHOS-240S, 0.00152 µM	1.04 ± 0.042
KHOS-240S, 0.00457 µM	1.05 ± 0.049
KHOS-240S, 0.01372 µM	1.02 ± 0.035
KHOS-240S, 0.04115 µM	1.01 ± 0.038
KHOS-240S, 0.1235 µM	0.964 ± 0.021
KHOS-240S, 0.3704 µM	0.802 ± 0.021
KHOS-240S, 1.111 µM	0.791 ± 0.056
KHOS-240S, 3.333 µM	0.495 ± 0.028
KHOS-240S, 10 µM	0.214 ± 0.013
MES-SA, 0.00017 µM	0.995 ± 0.025
MES-SA, 0.00051 µM	0.9681 ± 0.0042
MES-SA, 0.00152 µM	0.978 ± 0.036
MES-SA, 0.00457 µM	0.977 ± 0.03
MES-SA, 0.01372 µM	0.967 ± 0.02
MES-SA, 0.04115 µM	0.949 ± 0.015
MES-SA, 0.1235 µM	0.951 ± 0.05
MES-SA, 0.3704 µM	0.785 ± 0.018
MES-SA, 1.111 µM	0.825 ± 0.056
MES-SA, 3.333 µM	0.257 ± 0.02
MES-SA, 10 µM	0.056 ± 0.0056
RD, 0.00017 µM	0.981 ± 0.08
RD, 0.00051 µM	0.977 ± 0.036
RD, 0.00152 µM	1 ± 0.025
RD, 0.00457 µM	1.01 ± 0.029
RD, 0.01372 µM	1.01 ± 0.07
RD, 0.04115 µM	0.98 ± 0.048
RD, 0.1235 µM	0.984 ± 0.026
RD, 0.3704 µM	0.892 ± 0.046
RD, 1.111 µM	0.874 ± 0.037
RD, 3.333 µM	0.465 ± 0.028
RD, 10 µM	0.183 ± 0.0068
SK-ES-1, 0.00017 µM	0.9896 ± 0.0025
SK-ES-1, 0.00051 µM	1.06 ± 0.02
SK-ES-1, 0.00152 µM	1.03 ± 0.033
SK-ES-1, 0.00457 µM	1.02 ± 0.033
SK-ES-1, 0.01372 µM	1.01 ± 0.047
SK-ES-1, 0.04115 µM	0.969 ± 0.018
SK-ES-1, 0.1235 µM	0.943 ± 0.022
SK-ES-1, 0.3704 µM	0.829 ± 0.043
SK-ES-1, 1.111 µM	0.837 ± 0.038
SK-ES-1, 3.333 µM	0.499 ± 0.05
SK-ES-1, 10 µM	0.0154 ± 0.0008
SK-LMS-1, 0.00017 µM	1.11 ± 0.07
SK-LMS-1, 0.00051 µM	1.14 ± 0.027
SK-LMS-1, 0.00152 µM	1.12 ± 0.022
SK-LMS-1, 0.00457 µM	1.09 ± 0.036
SK-LMS-1, 0.01372 µM	1.1 ± 0.032
SK-LMS-1, 0.04115 µM	1.09 ± 0.033
SK-LMS-1, 0.1235 µM	1.17 ± 0.018
SK-LMS-1, 0.3704 µM	1.17 ± 0.035
SK-LMS-1, 1.111 µM	1.18 ± 0.051
SK-LMS-1, 3.333 µM	1.13 ± 0.043
SK-LMS-1, 10 µM	0.55 ± 0.032
SW872, 0.00017 µM	1.08 ± 0.024
SW872, 0.00051 µM	1.04 ± 0.037
SW872, 0.00152 µM	1.06 ± 0.052
SW872, 0.00457 µM	1.08 ± 0.018
SW872, 0.01372 µM	1.05 ± 0.033
SW872, 0.04115 µM	1.03 ± 0.016
SW872, 0.1235 µM	0.981 ± 0.033
SW872, 0.3704 µM	0.902 ± 0.075
SW872, 1.111 µM	0.779 ± 0.053
SW872, 3.333 µM	0.511 ± 0.027
SW872, 10 µM	0.213 ± 0.0081
SW982, 0.00017 µM	0.998 ± 0.022
SW982, 0.00051 µM	0.997 ± 0.022
SW982, 0.00152 µM	1 ± 0.026
SW982, 0.00457 µM	1.02 ± 0.021
SW982, 0.01372 µM	0.991 ± 0.053
SW982, 0.04115 µM	1.015 ± 0.008
SW982, 0.1235 µM	0.9984 ± 0.0073
SW982, 0.3704 µM	0.96 ± 0.066
SW982, 1.111 µM	0.922 ± 0.044
SW982, 3.333 µM	0.409 ± 0.018
SW982, 10 µM	0.0993 ± 0.005
SW1353, 0.00017 µM	1.09 ± 0.041
SW1353, 0.00051 µM	1.1 ± 0.015
SW1353, 0.00152 µM	1.05 ± 0.019
SW1353, 0.00457 µM	1.04 ± 0.041
SW1353, 0.01372 µM	1.04 ± 0.02
SW1353, 0.04115 µM	1.01 ± 0.034
SW1353, 0.1235 µM	1.02 ± 0.079
SW1353, 0.3704 µM	0.908 ± 0.026
SW1353, 1.111 µM	0.94 ± 0.035
SW1353, 3.333 µM	0.789 ± 0.036
SW1353, 10 µM	0.288 ± 0.011
VA-ES-BJ, 0.00017 µM	1.11 ± 0.03
VA-ES-BJ, 0.00051 µM	1.097 ± 0.0062
VA-ES-BJ, 0.00152 µM	1.11 ± 0.033
VA-ES-BJ, 0.00457 µM	1.12 ± 0.013
VA-ES-BJ, 0.01372 µM	1.09 ± 0.028
VA-ES-BJ, 0.04115 µM	1.08 ± 0.044
VA-ES-BJ, 0.1235 µM	1.05 ± 0.018
VA-ES-BJ, 0.3704 µM	0.9867 ± 0.0094
VA-ES-BJ, 1.111 µM	0.977 ± 0.045
VA-ES-BJ, 3.333 µM	0.61 ± 0.038
VA-ES-BJ, 10 µM	0.263 ± 0.044
